From patent publication US20250195513A1, “DEGRADATION OF IRAK4 BY CONJUGATION OF IRAK4 INHIBITORS WITH E3 LIGASE LIGAND AND METHODS OF USE” (BeiGene, Ltd., priority 2022, published 2025)

Key:
[1] = molecular target: T1, IRAK4 (Homo sapiens, UniProt Q9NWZ3); test: IRAK4 Degradation Assay (Karpas299, HTRF/TR-FRET); type: cell-based; settings: Karpas-299 cells; for Dmax: maximum percentage of degradation
T1 construct: endogenous in cells; host or cells: Karpas299
T1 sequence (Q9NWZ3 1-460): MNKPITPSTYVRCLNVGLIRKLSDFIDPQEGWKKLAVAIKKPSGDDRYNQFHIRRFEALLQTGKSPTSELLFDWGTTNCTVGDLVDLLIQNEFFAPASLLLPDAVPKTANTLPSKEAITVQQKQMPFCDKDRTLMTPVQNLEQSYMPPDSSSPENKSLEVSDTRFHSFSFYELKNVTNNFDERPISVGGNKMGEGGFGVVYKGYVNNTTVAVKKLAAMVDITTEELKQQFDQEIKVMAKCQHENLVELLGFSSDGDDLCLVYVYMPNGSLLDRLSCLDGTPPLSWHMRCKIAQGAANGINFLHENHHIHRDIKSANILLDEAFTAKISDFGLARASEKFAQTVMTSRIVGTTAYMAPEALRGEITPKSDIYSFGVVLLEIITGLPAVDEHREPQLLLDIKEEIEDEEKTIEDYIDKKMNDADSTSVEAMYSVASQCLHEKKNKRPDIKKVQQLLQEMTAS
Procedure, shortened: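 Karpas299 cells at 0.2 million per well were exposed to serially diluted compounds for 24 h or 5 h, then lysed. IRAK4 remaining in lysates was quantified by HTRF (665/620 nm) after overnight antibody incubation at room temperature. Percent degradation was fitted to a four-parameter curve to give IC50 (DC50).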

[2] = molecular target: T1, IRAK4; test: IRAK4 Degradation Assay with Human Serum (Karpas299, HTRF/TR-FRET); type: cell-based; settings: Karpas-299 in human serum, 24 hrs treatment; for DC50: read-out: IRAK4 degradtion with human serum assay DC50; for Dmax: read-out: IRAK4 degradtion with human serum assay Dmax (%)
Procedure, shortened: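 Karpas299 cells in human AB serum (0.2 million/well) treated with serial compound dilutions for 24 h. After lysis, IRAK4 quantified by HTRF (overnight antibody incubation at room temperature, 665/620 nm read). Degradation percentage fitted to four-parameter curve to give DC50.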

[3] = 24 h treatment, read-out: IRAK4 in Karpas-299 (24 h) Dmax (%)
[4] = 24 h treatment, read-out: IRAK4 in Karpas-299 (24 h) DC50

## CC(C)(O)c1cc2nn([C@H]3CC[C@H](N4CCN(C[C@@H]5CCN(c6ccc7c(c6)C(=O)N(C6CCC(=O)NC6=O)C7=O)C5)CC4)CC3)cc2cc1NC(=O)c1ccc2cc(C#N)cnn12 (stereo partly drawn) [Example 431, 3-cyano-N-(2-((1S,4r)-4-(4-(((3S)-1-(2-(2,6-dioxopiperidin-3-yl)-1,3-dioxoisoindolin-5-yl)pyrrolidin-3-yl)methyl)piperazin-1-yl)cyclohexyl)-6-(2-hydroxypropan-2-yl)-2H-indazol-5-yl)pyrrolo[1,2-b]pyridazine-7-carboxamide]
[1]; [3]
  Dmax: 94%
[1]; [4]
  DC50: 1.6 nM
[2]
  DC50: 8.7 nM
  Dmax: 95%

## Cc1nc(C2CCC(=O)NC2=O)ccc1N1CCC(N2CCN(C34CCC(n5cc6cc(NC(=O)c7ccc8cc(C#N)cnn78)c(C(C)(C)O)cc6n5)(CC3)CC4)CC2)CC1 (stereo not drawn) [Example 416, 3-cyano-N-(2-(4-(4-(1-(6-(2,6-dioxopiperidin-3-yl)-2-methylpyridin-3-yl)piperidin-4-yl)piperazin-1-yl)bicyclo[2.2.2]octan-1-yl)-6-(2-hydroxypropan-2-yl)-2H-indazol-5-yl)pyrrolo[1,2-b]pyridazine-7-carboxamide]
[1]; [3]
  Dmax: 98%
[1]; [4]
  DC50: 1.9 nM
[2]
  DC50: 9.2 nM
  Dmax: 99%

## CC(C)(O)c1cc2nn([C@H]3CC[C@H](N4CCN([C@@H]5CCN(c6ccc(N7CCC(=O)NC7=O)cc6)C5)CC4)CC3)cc2cc1NC(=O)c1ccc2cc(C#N)cnn12 [Example 294, 3-cyano-N-(2-((1R,4r)-4-(4-((R)-1-(4-(2,4-dioxotetrahydropyrimidin-1(2H)-yl)phenyl)pyrrolidin-3-yl)piperazin-1-yl)cyclohexyl)-6-(2-hydroxypropan-2-yl)-2H-indazol-5-yl)pyrrolo[1,2-b]pyridazine-7-carboxamide]
[1]; [3]
  Dmax: 97%
[1]; [4]
  DC50: 3.4 nM
[2]
  DC50: 14 nM
  Dmax: 98%

## COC[C@@H]1CN(C(=O)C2CN(c3cc(F)c([C@H]4CCC(=O)NC4=O)c(F)c3)C2)CCN1[C@H]1CC[C@H](n2cc3cc(NC(=O)c4ccc5cc(C#N)cnn45)c(C(C)(C)O)cc3n2)CC1 [Example 183, 3-cyano-N-(2-((1S,4r)-4-((S)-4-(1-(4-((R)-2,6-dioxopiperidin-3-yl)-3,5-difluorophenyl)azetidine-3-carbonyl)-2-(methoxymethyl)piperazin-1-yl)cyclohexyl)-6-(2-hydroxypropan-2-yl)-2H-indazol-5-yl)pyrrolo[1,2-b]pyridazine-7-carboxamide]
[1]; [3]
  Dmax: 98%
[1]; [4]
  DC50: 0.3 nM
[2]
  DC50: 35 nM
  Dmax: 95%

## CC(C)(O)c1cc2nn([C@H]3CC[C@H](N4CCN(C5CCN(c6cc(F)c(N7CCC(=O)NC7=O)c(F)c6)CC5)CC4)CC3)cc2cc1NC(=O)c1ccc2cc(C#N)cnn12 [Example 293, 3-cyano-N-(2-((1r,4r)-4-(4-(1-(4-(2,4-dioxotetrahydropyrimidin-1(2H)-yl)-3,5-difluorophenyl)piperidin-4-yl)piperazin-1-yl)cyclohexyl)-6-(2-hydroxypropan-2-yl)-2H-indazol-5-yl)pyrrolo[1,2-b]pyridazine-7-carboxamide]
[1]; [3]
  Dmax: 96%
[1]; [4]
  DC50: 9.4 nM
[2]
  DC50: 9.4 nM
  Dmax: 96%

## COc1cc2nn([C@H]3CC[C@H](N4CCN(C(=O)C5CN(c6cc(F)c([C@H]7CCC(=O)NC7=O)c(F)c6)C5)CC4)CC3)cc2cc1C(=O)Nc1cnn2cccnc12 [Example 344, 2-((1r,4r)-4-(4-(1-(4-((R)-2,6-dioxopiperidin-3-yl)-3,5-difluorophenyl)azetidine-3-carbonyl)piperazin-1-yl)cyclohexyl)-6-methoxy-N-(pyrazolo[1,5-a]pyrimidin-3-yl)-2H-indazole-5-carboxamide]
[1]; [3]
  Dmax: 98%
[1]; [4]
  DC50: 0.24 nM
[2]
  DC50: 2.7 nM
  Dmax: 100%

## CC(C)(O)c1cc2nn([C@H]3CC[C@H](CN4CCN(CCNc5cccc6c5C(=O)N(C5CCC(=O)NC5=O)C6=O)CC4)CC3)cc2cc1NC(=O)c1ccc2cc(C#N)cnn12 (stereo partly drawn) [Example 438, 3-cyano-N-(2-((1r,4r)-4-((4-(2-((2-(2,6-dioxopiperidin-3-yl)-1,3-dioxoisoindolin-4-yl)amino)ethyl)piperazin-1-yl)methyl)cyclohexyl)-6-(2-hydroxypropan-2-yl)-2H-indazol-5-yl)pyrrolo[1,2-b]pyridazine-7-carboxamide]
[1]; [3]
  Dmax: 96%
[1]; [4]
  DC50: 2.5 nM
[2]
  DC50: 17 nM
  Dmax: 96%

## CC(C)(O)c1cc2nn([C@H]3CC[C@H](N4CCN(C(=O)[C@@H]5CCN(c6cc(F)c(N7CCC(=O)NC7=O)c(F)c6)C5)CC4)CC3)cc2cc1NC(=O)c1ccc2cc(C#N)cnn12 [Example 106, 3-cyano-N-(2-((1R,4r)-4-(4-((R)-1-(4-(2,4-dioxotetrahydropyrimidin-1(2H)-yl)-3,5-difluorophenyl)pyrrolidine-3-carbonyl)piperazin-1-yl)cyclohexyl)-6-(2-hydroxypropan-2-yl)-2H-indazol-5-yl)pyrrolo[1,2-b]pyridazine-7-carboxamide]
[1]; [3]
  Dmax: 97%
[1]; [4]
  DC50: 2.4 nM
[2]
  DC50: 57 nM
  Dmax: 97%

## CC(C)(O)c1cc2nn([C@H]3CC[C@H](N4CCN(CC5CCN(c6ccc7c(c6)CN(C6CCC(=O)NC6=O)C7=O)CC5)CC4)CC3)cc2cc1NC(=O)c1ccc2cc(C#N)cnn12 (stereo partly drawn) [Example 353, 3-cyano-N-(2-((1r,4r)-4-(4-((1-(2-(2,6-dioxopiperidin-3-yl)-1-oxoisoindolin-5-yl)piperidin-4-yl)methyl)piperazin-1-yl)cyclohexyl)-6-(2-hydroxypropan-2-yl)-2H-indazol-5-yl)pyrrolo[1,2-b]pyridazine-7-carboxamide]
[1]; [3]
  Dmax: 95%
[1]; [4]
  DC50: 0.8 nM
[2]
  DC50: 3.5 nM
  Dmax: 88%

## COC[C@H]1CN(C2CN(c3cc(F)c([C@H]4CCC(=O)NC4=O)c(F)c3)C2)CCN1[C@H]1CC[C@H](n2cc3cc(NC(=O)c4ccc5cc(C#N)cnn45)c(C(C)(C)O)cc3n2)CC1 [Example 323, 3-cyano-N-(2-((1R,4r)-4-((R)-4-(1-(4-((R)-2,6-dioxopiperidin-3-yl)-3,5-difluorophenyl)azetidin-3-yl)-2-(methoxymethyl)piperazin-1-yl)cyclohexyl)-6-(2-hydroxypropan-2-yl)-2H-indazol-5-yl)pyrrolo[1,2-b]pyridazine-7-carboxamide]
[1]; [3]
  Dmax: 94%
[1]; [4]
  DC50: 2.1 nM
[2]
  DC50: 14 nM
  Dmax: 98%

## C[C@@H]1CN([C@H]2CC[C@H](n3cc4cc(NC(=O)c5ccc6cc(C#N)cnn56)c(C(C)(C)O)cc4n3)CC2)CCN1CC1CN(c2cc(F)c([C@H]3CCC(=O)NC3=O)c(F)c2)C1 [Example 310, 3-cyano-N-(2-((1R,4r)-4-((R)-4-((1-(4-((R)-2,6-dioxopiperidin-3-yl)-3,5-difluorophenyl)azetidin-3-yl)methyl)-3-methylpiperazin-1-yl)cyclohexyl)-6-(2-hydroxypropan-2-yl)-2H-indazol-5-yl)pyrrolo[1,2-b]pyridazine-7-carboxamide]
[1]; [3]
  Dmax: 98%
[1]; [4]
  DC50: 0.6 nM
[2]
  DC50: 3.2 nM
  Dmax: 102%

## COc1cc(N2CC(C(=O)N3CCN([C@H]4CC[C@H](n5cc6cc(NC(=O)c7ccc8cc(C#N)cnn78)c(C(C)(C)O)cc6n5)CC4)CC3)C2)cc(F)c1N1CCC(=O)NC1=O [Example 210, 3-cyano-N-(2-((1r,4r)-4-(4-(1-(4-(2,4-dioxotetrahydropyrimidin-1(2H)-yl)-3-fluoro-5-methoxyphenyl)azetidine-3-carbonyl)piperazin-1-yl)cyclohexyl)-6-(2-hydroxypropan-2-yl)-2H-indazol-5-yl)pyrrolo[1,2-b]pyridazine-7-carboxamide]
[1]; 5 h treatment, read-out: IRAK4 in Karpas-299 (5 h) Dmax (%)
  Dmax: 97%
[1]; 5 h treatment, read-out: IRAK4 in Karpas-299 (5 h) DC50
  DC50: 6.8 nM
[1]; [3]
  Dmax: 97%
[1]; [4]
  DC50: 3.3 nM
[2]
  DC50: 7 nM
  Dmax: 98%

## CC(C)(O)C[C@H]1CN(CCc2cc(F)c([C@H]3CCC(=O)NC3=O)c(F)c2)CCN1[C@H]1CC[C@H](n2cc3cc(NC(=O)c4ccc5cc(C#N)cnn45)c(C(C)(C)O)cc3n2)CC1 [Example 369, 3-cyano-N-(2-((1S,4r)-4-((S)-4-(4-((R)-2,6-dioxopiperidin-3-yl)-3,5-difluorophenethyl)-2-(2-hydroxy-2-methylpropyl)piperazin-1-yl)cyclohexyl)-6-(2-hydroxypropan-2-yl)-2H-indazol-5-yl)pyrrolo[1,2-b]pyridazine-7-carboxamide]
[1]; [3]
  Dmax: 96%
[1]; [4]
  DC50: 0.6 nM
[2]
  DC50: 3 nM
  Dmax: 97%
